In PubChem BioAssay (NCI):
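Following 48 hours of exposure in 96-well plates, responses at five concentrations were used to interpolate endpoints linearly. GI50 marks 50% less growth. TGI denotes the concentration required for complete inhibition of growth.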

How the values were obtained:
Assay in all cases: DTP human tumour cell line panel, 48 h
[1] = system: 786-0 renal
[2] = system: A498 renal
[3] = system: A549 NSCLC
[4] = system: ACHN renal
[5] = system: BT-549 breast
[6] = system: CAKI-1 renal
[7] = system: CCRF-CEM leukemia
[8] = system: COLO 205 colon
[9] = system: DU-145 prostate
[10] = system: HCC-2998 colon
[11] = system: HCT-116 colon
[12] = system: HCT-15 colon
[13] = system: HL-60(TB) leukemia
[14] = system: HOP-62 NSCLC
[15] = system: HOP-92 NSCLC
[16] = system: HS 578T breast
[17] = system: HT29 colon
[18] = system: IGROV1 ovarian
[19] = system: K-562 leukemia
[20] = system: KM12 colon
[21] = system: LOX IMVI melanoma
[22] = system: M14 melanoma
[23] = system: MALME-3M melanoma
[24] = system: MCF7 breast
[25] = system: MDA-MB-231 breast
[26] = system: MDA-MB-435
[27] = system: MOLT-4 leukemia
[28] = system: NCI-H226 lung
[29] = system: NCI-H23 lung
[30] = system: NCI-H460 lung
[31] = system: NCI-H522 lung
[32] = system: NCI/ADR-RES ovarian
[33] = system: OVCAR-3 ovarian
[34] = system: OVCAR-4 ovarian
[35] = system: OVCAR-5 ovarian
[36] = system: OVCAR-8 ovarian
[37] = system: PC-3 prostate
[38] = system: RPMI-8226 leukemia
[39] = system: RXF 393 renal
[40] = system: SF-268 CNS
[41] = system: SF-295 CNS
[42] = system: SF-539 CNS
[43] = system: SK-MEL-2 melanoma
[44] = system: SK-MEL-28 melanoma
[45] = system: SK-MEL-5 melanoma
[46] = system: SK-OV-3 ovarian
[47] = system: SN12C renal
[48] = system: SNB-19 CNS
[49] = system: SNB-75 CNS
[50] = system: SR leukemia
[51] = system: SW-620 colon
[52] = system: T-47D breast
[53] = system: TK-10 renal
[54] = system: U251 CNS
[55] = system: UACC-257 melanoma
[56] = system: UACC-62 melanoma
[57] = system: UO-31 renal

## O=C1NC(=NCCc2cccs2)S/C1=C\c1ccc2ncccc2c1
[1]
  GI50: 14.5 µM
  TGI: > 25 µM
[2]
  GI50: 7.59 µM
  TGI: > 22.3 µM
[3]
  GI50: 8.83 µM
  TGI: > 25 µM
[4]
  GI50: 8.33 µM
  TGI: > 25 µM
[5]
  GI50: 6.39 µM
  TGI: 22 µM
[6]
  GI50: 9.7 µM
  TGI: > 25 µM
[7]
  GI50: 10.2 µM
  TGI: > 25 µM
[8]
  GI50: 7.79 µM
  TGI: > 25 µM
[9]
  GI50: 11.2 µM
  TGI: > 25 µM
[10]
  GI50: 22.1 µM
  TGI: > 25 µM
[11]
  GI50: 5.92 µM
  TGI: > 25 µM
[12]
  GI50: 8.02 µM
  TGI: > 25 µM
[13]
  GI50: 9.17 µM
  TGI: > 25 µM
[14]
  GI50: 11.8 µM
  TGI: > 25 µM
[15]
  GI50: 4.7 µM
  TGI: > 25 µM
[16]
  GI50: 6.57 µM
  TGI: > 21.8 µM
[17]
  GI50: 11.8 µM
  TGI: > 25 µM
[18]
  GI50: 9.1 µM
  TGI: > 25 µM
[19]
  GI50: 8.85 µM
  TGI: > 25 µM
[20]
  GI50: 10.8 µM
  TGI: > 25 µM
[21]
  GI50: 8.12 µM
  TGI: > 25 µM
[22]
  GI50: 12.1 µM
  TGI: > 25 µM
[23]
  GI50: > 25 µM
  TGI: > 25 µM
[24]
  GI50: 8.28 µM
  TGI: > 25 µM
[25]
  GI50: 19.7 µM
  TGI: > 25 µM
[26]
  GI50: 6.97 µM
  TGI: > 25 µM
[27]
  GI50: 12.6 µM
  TGI: > 25 µM
[28]
  GI50: 8.21 µM
  TGI: > 25 µM
[29]
  GI50: 9.54 µM
  TGI: > 25 µM
[30]
  GI50: 10.3 µM
  TGI: > 25 µM
[31]
  GI50: 7.33 µM
  TGI: > 25 µM
[32]
  GI50: 15.3 µM
  TGI: > 25 µM
[33]
  GI50: 10.1 µM
  TGI: > 25 µM
[34]
  GI50: 13.2 µM
  TGI: > 25 µM
[35]
  GI50: > 20.4 µM
  TGI: > 25 µM
[36]
  GI50: 10.3 µM
  TGI: > 25 µM
[37]
  GI50: > 20 µM
  TGI: > 25 µM
[38]
  GI50: 11.6 µM
  TGI: > 25 µM
[39]
  GI50: 7.68 µM
  TGI: > 25 µM
[40]
  GI50: 10 µM
  TGI: > 25 µM
[41]
  GI50: 9.56 µM
  TGI: > 25 µM
[42]
  GI50: 7.54 µM
  TGI: > 25 µM
[43]
  GI50: > 18.8 µM
  TGI: > 25 µM
[44]
  GI50: 24.4 µM
  TGI: > 25 µM
[45]
  GI50: 8.5 µM
  TGI: > 25 µM
[46]
  GI50: 9.36 µM
  TGI: > 25 µM
[47]
  GI50: 8.78 µM
  TGI: > 25 µM
[48]
  GI50: 9.64 µM
  TGI: > 25 µM
[49]
  GI50: 5.91 µM
  TGI: > 22.6 µM
[50]
  GI50: 2.23 µM
  TGI: 14.2 µM
[51]
  GI50: 8.2 µM
  TGI: > 25 µM
[52]
  GI50: 10.1 µM
  TGI: > 25 µM
[53]
  GI50: 7.77 µM
  TGI: > 25 µM
[54]
  GI50: 8.79 µM
  TGI: > 25 µM
[55]
  GI50: > 19.3 µM
  TGI: > 25 µM
[56]
  GI50: 9.51 µM
  TGI: > 25 µM
[57]
  GI50: 11.4 µM
  TGI: > 25 µM
